According to ChEMBL document CHEMBL4619722, “Alanine scan-guided synthesis and biological evaluation of analogues of culicinin D, a potent anticancer peptaibol” (Bioorg Med Chem Lett, 2020):
Numbered stars: 1 amine (or outer) side, 2 acyl side, 3 side chain; on linkers, the order of the positions; unused ones are H or OH. Square brackets hold non-standard residues; d marks the D form. Peptide text beside a SMILES is read from it. * marks the point of attachment. X1 = CCC(=O)C[C@H](O)C[C@@H](C)C[C@H](N[*:1])C(=O)[*:2]; Gly(1-adamantyl) = N[C@H](C(=O)O)C12CC3CC(CC(C3)C1)C2; NH((S)CH(Me)CH2NHC2H4OH) = C[C@@H](CNCCO)N*; Gly(octyl) = CCCCCCCC[C@H](N)C(=O)O; Ala(cPr) = N[C@@H](CC1CC1)C(=O)O; Cha = N[C@@H](CC1CCCCC1)C(=O)O; Chg = N[C@H](C(=O)O)C1CCCCC1; Ac6c = NC1(C(=O)O)CCCCC1; Ac5c = NC1(C(=O)O)CCCC1; Ac4c = NC1(C(=O)O)CCC1; Ac3c = NC1(C(=O)O)CC1; Aib = CC(C)(N)C(=O)O; Butyryl = CCCC(=O)*; βAla = NCCC(=O)O

Key:
Format in all cases: functional, cell-based
NCI-H460 = experiment: Antiproliferative activity against human NCI-H460 cells
T47D = experiment: Antiproliferative activity against human T47D cells
MDA-MB-468 = experiment: Antiproliferative activity against human MDA-MB-468 cells
SK-BR-3 = experiment: Antiproliferative activity against human SKBR3 cells

Row | IC50 (NCI-H460) | IC50 (T47D) | IC50 (MDA-MB-468) | IC50 (SK-BR-3) | SMILES
1 | 249 nM | 166 nM | 262 nM | > 1000 nM | CCCCCCCC[C@H](NC(=O)C(C)(C)NC(=O)C(C)(C)NC(=O)[C@H](CS)NC(=O)[C@@H]1CCCN1C(=O)CCC)C(=O)N[C@@H](CC(C)C)C(=O)NC(C)(C)C(=O)N[C@@H](CC(C)C)C(=O)NCCC(=O)N[C@@H](C)CNCCO (Butyryl-PC[Aib][Aib][Gly(octyl)]L[Aib]L[βAla]-{NH((S)CH(Me)CH2NHC2H4OH)})
2 | > 10000 nM | > 10000 nM | > 10000 nM | > 10000 nM | CCCCCCCC[C@H](NC(=O)C(C)(C)NC(=O)C(C)(C)NC(=O)[C@H](CCC(=O)O)NC(=O)[C@@H]1CCCN1C(=O)CCC)C(=O)N[C@@H](CC(C)C)C(=O)NC(C)(C)C(=O)N[C@@H](CC(C)C)C(=O)NCCC(=O)N[C@@H](C)CNCCO (Butyryl-PE[Aib][Aib][Gly(octyl)]L[Aib]L[βAla]-{NH((S)CH(Me)CH2NHC2H4OH)})
3 | 6 nM | 8 nM | 7 nM | 25 nM | CCCCCCCC[C@H](NC(=O)C(C)(C)NC(=O)C(C)(C)NC(=O)[C@H](Cc1ccccc1)NC(=O)[C@@H]1CCCN1C(=O)CCC)C(=O)N[C@@H](CC(C)C)C(=O)NC(C)(C)C(=O)N[C@@H](CC(C)C)C(=O)NCCC(=O)N[C@@H](C)CNCCO (Butyryl-PF[Aib][Aib][Gly(octyl)]L[Aib]L[βAla]-{NH((S)CH(Me)CH2NHC2H4OH)})
4 | 133 nM | 87 nM | 76 nM | 310 nM | CCCCCCCC[C@H](NC(=O)C(C)(C)NC(=O)C(C)(C)NC(=O)CNC(=O)[C@@H]1CCCN1C(=O)CCC)C(=O)N[C@@H](CC(C)C)C(=O)NC(C)(C)C(=O)N[C@@H](CC(C)C)C(=O)NCCC(=O)N[C@@H](C)CNCCO (Butyryl-PG[Aib][Aib][Gly(octyl)]L[Aib]L[βAla]-{NH((S)CH(Me)CH2NHC2H4OH)})
5 | 456 nM | 151 nM | 136 nM | > 1000 nM | CCCCCCCC[C@H](NC(=O)C(C)(C)NC(=O)C(C)(C)NC(=O)[C@H](Cc1c[nH]cn1)NC(=O)[C@@H]1CCCN1C(=O)CCC)C(=O)N[C@@H](CC(C)C)C(=O)NC(C)(C)C(=O)N[C@@H](CC(C)C)C(=O)NCCC(=O)N[C@@H](C)CNCCO (Butyryl-PH[Aib][Aib][Gly(octyl)]L[Aib]L[βAla]-{NH((S)CH(Me)CH2NHC2H4OH)})
6 | 10 nM | 8 nM | 11 nM | 43 nM | CCCCCCCC[C@H](NC(=O)C(C)(C)NC(=O)C(C)(C)NC(=O)[C@H](CCSC)NC(=O)[C@@H]1CCCN1C(=O)CCC)C(=O)N[C@@H](CC(C)C)C(=O)NC(C)(C)C(=O)N[C@@H](CC(C)C)C(=O)NCCC(=O)N[C@@H](C)CNCCO (Butyryl-PM[Aib][Aib][Gly(octyl)]L[Aib]L[βAla]-{NH((S)CH(Me)CH2NHC2H4OH)})
7 | 23 nM | 15 nM | 21 nM | 60 nM | CCCCCCCC[C@H](NC(=O)C(C)(C)NC(=O)C(C)(C)NC(=O)[C@H](Cc1c[nH]c2ccccc12)NC(=O)[C@@H]1CCCN1C(=O)CCC)C(=O)N[C@@H](CC(C)C)C(=O)NC(C)(C)C(=O)N[C@@H](CC(C)C)C(=O)NCCC(=O)N[C@@H](C)CNCCO (Butyryl-PW[Aib][Aib][Gly(octyl)]L[Aib]L[βAla]-{NH((S)CH(Me)CH2NHC2H4OH)})
8 | 71 nM | 32 nM | 35 nM | 155 nM | CCCCCCCC[C@H](NC(=O)C(C)(C)NC(=O)C(C)(C)NC(=O)[C@H](Cc1ccc(O)cc1)NC(=O)[C@@H]1CCCN1C(=O)CCC)C(=O)N[C@@H](CC(C)C)C(=O)NC(C)(C)C(=O)N[C@@H](CC(C)C)C(=O)NCCC(=O)N[C@@H](C)CNCCO (Butyryl-PY[Aib][Aib][Gly(octyl)]L[Aib]L[βAla]-{NH((S)CH(Me)CH2NHC2H4OH)})
9 | 87 nM | 57 nM | 64 nM | 236 nM | CCCCCCCC[C@H](NC(=O)C(C)(C)NC(=O)C(C)(C)NC(=O)C1(NC(=O)[C@@H]2CCCN2C(=O)CCC)CC1)C(=O)N[C@@H](CC(C)C)C(=O)NC(C)(C)C(=O)N[C@@H](CC(C)C)C(=O)NCCC(=O)N[C@@H](C)CNCCO (Butyryl-P[Ac3c][Aib][Aib][Gly(octyl)]L[Aib]L[βAla]-{NH((S)CH(Me)CH2NHC2H4OH)})
10 | 19 nM | 17 nM | 16 nM | 68 nM | CCCCCCCC[C@H](NC(=O)C(C)(C)NC(=O)C(C)(C)NC(=O)C1(NC(=O)[C@@H]2CCCN2C(=O)CCC)CCC1)C(=O)N[C@@H](CC(C)C)C(=O)NC(C)(C)C(=O)N[C@@H](CC(C)C)C(=O)NCCC(=O)N[C@@H](C)CNCCO (Butyryl-P[Ac4c][Aib][Aib][Gly(octyl)]L[Aib]L[βAla]-{NH((S)CH(Me)CH2NHC2H4OH)})
11 | 36 nM | 29 nM | 29 nM | 118 nM | CCCCCCCC[C@H](NC(=O)C(C)(C)NC(=O)C(C)(C)NC(=O)C1(NC(=O)[C@@H]2CCCN2C(=O)CCC)CCCC1)C(=O)N[C@@H](CC(C)C)C(=O)NC(C)(C)C(=O)N[C@@H](CC(C)C)C(=O)NCCC(=O)N[C@@H](C)CNCCO (Butyryl-P[Ac5c][Aib][Aib][Gly(octyl)]L[Aib]L[βAla]-{NH((S)CH(Me)CH2NHC2H4OH)})
12 | 39 nM | 25 nM | 31 nM | 96 nM | CCCCCCCC[C@H](NC(=O)C(C)(C)NC(=O)C(C)(C)NC(=O)C1(NC(=O)[C@@H]2CCCN2C(=O)CCC)CCCCC1)C(=O)N[C@@H](CC(C)C)C(=O)NC(C)(C)C(=O)N[C@@H](CC(C)C)C(=O)NCCC(=O)N[C@@H](C)CNCCO (Butyryl-P[Ac6c][Aib][Aib][Gly(octyl)]L[Aib]L[βAla]-{NH((S)CH(Me)CH2NHC2H4OH)})
13 | 57 nM | 29 nM | 48 nM | 150 nM | CCCCCCCC[C@H](NC(=O)C(C)(C)NC(=O)C(C)(C)NC(=O)C(C)(C)NC(=O)[C@@H]1CCCN1C(=O)CCC)C(=O)N[C@@H](CC(C)C)C(=O)NC(C)(C)C(=O)N[C@@H](CC(C)C)C(=O)NCCC(=O)N[C@@H](C)CNCCO (Butyryl-P[Aib][Aib][Aib][Gly(octyl)]L[Aib]L[βAla]-{NH((S)CH(Me)CH2NHC2H4OH)})
14 | 8 nM | 10 nM | 10 nM | 29 nM | CCCCCCCC[C@H](NC(=O)C(C)(C)NC(=O)C(C)(C)NC(=O)[C@H](CC1CC1)NC(=O)[C@@H]1CCCN1C(=O)CCC)C(=O)N[C@@H](CC(C)C)C(=O)NC(C)(C)C(=O)N[C@@H](CC(C)C)C(=O)NCCC(=O)N[C@@H](C)CNCCO (Butyryl-P[Ala(cPr)][Aib][Aib][Gly(octyl)]L[Aib]L[βAla]-{NH((S)CH(Me)CH2NHC2H4OH)})
15 | 2 nM | 4 nM | 3 nM | 12 nM | CCCCCCCC[C@H](NC(=O)C(C)(C)NC(=O)C(C)(C)NC(=O)[C@H](CC1CCCCC1)NC(=O)[C@@H]1CCCN1C(=O)CCC)C(=O)N[C@@H](CC(C)C)C(=O)NC(C)(C)C(=O)N[C@@H](CC(C)C)C(=O)NCCC(=O)N[C@@H](C)CNCCO (Butyryl-P[Cha][Aib][Aib][Gly(octyl)]L[Aib]L[βAla]-{NH((S)CH(Me)CH2NHC2H4OH)})
16 | 6 nM | 8 nM | 10 nM | 21 nM | CCCCCCCC[C@H](NC(=O)C(C)(C)NC(=O)C(C)(C)NC(=O)[C@@H](NC(=O)[C@@H]1CCCN1C(=O)CCC)C1CCCCC1)C(=O)N[C@@H](CC(C)C)C(=O)NC(C)(C)C(=O)N[C@@H](CC(C)C)C(=O)NCCC(=O)N[C@@H](C)CNCCO (Butyryl-P[Chg][Aib][Aib][Gly(octyl)]L[Aib]L[βAla]-{NH((S)CH(Me)CH2NHC2H4OH)})
17 | 17 nM | 16 nM | 21 nM | 72 nM | CCCCCCCC[C@H](NC(=O)C(C)(C)NC(=O)C(C)(C)NC(=O)[C@@H](NC(=O)[C@@H]1CCCN1C(=O)CCC)C12CC3CC(CC(C3)C1)C2)C(=O)N[C@@H](CC(C)C)C(=O)NC(C)(C)C(=O)N[C@@H](CC(C)C)C(=O)NCCC(=O)N[C@@H](C)CNCCO (Butyryl-P[Gly(1-adamantyl)][Aib][Aib][Gly(octyl)]L[Aib]L[βAla]-{NH((S)CH(Me)CH2NHC2H4OH)})
18 | 5 nM | 7 nM | 5 nM | 15 nM | CCCCCCCC[C@H](NC(=O)[C@@H]1CCCN1C(=O)CCC)C(=O)NC(C)(C)C(=O)NC(C)(C)C(=O)N[C@@H](CCCCCCCC)C(=O)N[C@@H](CC(C)C)C(=O)NC(C)(C)C(=O)N[C@@H](CC(C)C)C(=O)NCCC(=O)N[C@@H](C)CNCCO (Butyryl-P[Gly(octyl)][Aib][Aib][Gly(octyl)]L[Aib]L[βAla]-{NH((S)CH(Me)CH2NHC2H4OH)})
19 | > 10000 nM | > 1000 nM | > 1000 nM | > 30000 nM | CCCC(=O)N1CCC[C@H]1C(=O)N[C@@H](C[C@H](C)C[C@@H](O)CC(=O)CC)C(=O)NC(C)(C)C(=O)NC(C)(C)C(=O)N[C@@H](C)C(=O)N[C@@H](CC(C)C)C(=O)NC(C)(C)C(=O)N[C@@H](CC(C)C)C(=O)NCCC(=O)N[C@@H](C)CNCCO (Butyryl-P[X1][Aib][Aib]AL[Aib]L[βAla]-{NH((S)CH(Me)CH2NHC2H4OH)})
20 | > 500 nM | 251 nM | 142 nM | > 1000 nM | CCCC(=O)N1CCC[C@H]1C(=O)N[C@@H](C[C@H](C)C[C@@H](O)CC(=O)CC)C(=O)NC(C)(C)C(=O)NC(C)(C)C(=O)N[C@H](C(=O)N[C@@H](CC(C)C)C(=O)NC(C)(C)C(=O)N[C@@H](CC(C)C)C(=O)NCCC(=O)N[C@@H](C)CNCCO)[C@@H](C)CC (Butyryl-P[X1][Aib][Aib]IL[Aib]L[βAla]-{NH((S)CH(Me)CH2NHC2H4OH)})
21 | 496 nM | 130 nM | 90 nM | > 1000 nM | CCCC(=O)N1CCC[C@H]1C(=O)N[C@@H](C[C@H](C)C[C@@H](O)CC(=O)CC)C(=O)NC(C)(C)C(=O)NC(C)(C)C(=O)N[C@@H](CC(C)C)C(=O)N[C@@H](CC(C)C)C(=O)NC(C)(C)C(=O)N[C@@H](CC(C)C)C(=O)NCCC(=O)N[C@@H](C)CNCCO (Butyryl-P[X1][Aib][Aib]LL[Aib]L[βAla]-{NH((S)CH(Me)CH2NHC2H4OH)})
